These results are taken from ChEMBL document CHEMBL4261647, “Synthesis, DNA and protein interactions and human topoisomerase inhibition of novel Spiroacridine derivatives” (Bioorg Med Chem, 2018).

Series [1] deals with DNA topoisomerase 2-alpha (Homo sapiens) (UniProt P11388). Description: Inhibition of recombinant human topoisomerase 2alpha assessed as decrease in relaxation of supercoiled pUC19 DNA at 100 uM after 30 mins by ethidium bromide staining based agarose gel electrophoresis relative to control.
DNA topoisomerase 2-alpha (Homo sapiens), sequence (P11388 whole entry): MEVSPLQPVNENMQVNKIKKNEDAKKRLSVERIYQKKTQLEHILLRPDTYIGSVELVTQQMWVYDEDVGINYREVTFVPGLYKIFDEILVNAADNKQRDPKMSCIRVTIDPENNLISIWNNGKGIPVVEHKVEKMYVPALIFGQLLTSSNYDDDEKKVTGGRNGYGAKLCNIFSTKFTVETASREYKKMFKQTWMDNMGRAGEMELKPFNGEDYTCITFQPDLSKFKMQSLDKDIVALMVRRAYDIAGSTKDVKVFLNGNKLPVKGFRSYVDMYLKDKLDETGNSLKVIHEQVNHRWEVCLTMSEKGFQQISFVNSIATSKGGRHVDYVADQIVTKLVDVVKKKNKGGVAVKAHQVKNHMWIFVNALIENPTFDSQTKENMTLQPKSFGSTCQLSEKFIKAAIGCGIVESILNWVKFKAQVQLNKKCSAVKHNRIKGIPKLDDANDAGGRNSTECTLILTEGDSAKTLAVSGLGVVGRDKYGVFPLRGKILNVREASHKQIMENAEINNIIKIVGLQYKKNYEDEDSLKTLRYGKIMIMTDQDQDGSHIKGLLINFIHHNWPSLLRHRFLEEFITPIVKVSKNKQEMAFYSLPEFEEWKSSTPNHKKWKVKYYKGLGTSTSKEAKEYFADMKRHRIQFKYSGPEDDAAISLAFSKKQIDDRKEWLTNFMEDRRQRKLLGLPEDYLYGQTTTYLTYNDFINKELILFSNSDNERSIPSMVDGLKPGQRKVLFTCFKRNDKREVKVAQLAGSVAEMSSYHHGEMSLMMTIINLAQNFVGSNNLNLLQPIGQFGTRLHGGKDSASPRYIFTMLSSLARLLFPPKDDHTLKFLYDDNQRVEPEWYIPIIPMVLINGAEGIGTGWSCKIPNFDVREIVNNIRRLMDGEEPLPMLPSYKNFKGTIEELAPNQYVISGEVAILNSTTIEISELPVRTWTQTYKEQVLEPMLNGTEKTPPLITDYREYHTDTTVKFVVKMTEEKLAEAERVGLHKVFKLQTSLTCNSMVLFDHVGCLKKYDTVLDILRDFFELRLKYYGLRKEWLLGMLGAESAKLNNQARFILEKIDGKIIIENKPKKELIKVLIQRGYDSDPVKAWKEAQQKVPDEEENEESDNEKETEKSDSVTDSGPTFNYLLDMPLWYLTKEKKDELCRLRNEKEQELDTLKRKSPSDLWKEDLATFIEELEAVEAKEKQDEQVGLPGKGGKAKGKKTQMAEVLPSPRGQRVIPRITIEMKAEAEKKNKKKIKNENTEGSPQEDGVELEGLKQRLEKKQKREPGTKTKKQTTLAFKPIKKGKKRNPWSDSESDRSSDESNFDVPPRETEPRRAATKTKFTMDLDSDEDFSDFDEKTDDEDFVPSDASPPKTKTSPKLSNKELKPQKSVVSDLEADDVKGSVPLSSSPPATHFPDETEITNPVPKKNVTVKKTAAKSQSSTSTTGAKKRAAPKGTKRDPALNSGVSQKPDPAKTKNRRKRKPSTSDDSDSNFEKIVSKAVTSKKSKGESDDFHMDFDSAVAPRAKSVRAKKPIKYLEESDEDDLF
The target in series [2] is T1, Albumin (Bos taurus, UniProt P02769). Description: Binding affinity to bovine serum albumin assessed as decrease in protein fluorescence intensity up to 10 uM by fluorescence spectroscopic analysis. It counts as ADME. Details: scale not given: the % may be the effect or the level left. Conditions: cattle, isolated protein.
T1 sequence (P02769 whole entry): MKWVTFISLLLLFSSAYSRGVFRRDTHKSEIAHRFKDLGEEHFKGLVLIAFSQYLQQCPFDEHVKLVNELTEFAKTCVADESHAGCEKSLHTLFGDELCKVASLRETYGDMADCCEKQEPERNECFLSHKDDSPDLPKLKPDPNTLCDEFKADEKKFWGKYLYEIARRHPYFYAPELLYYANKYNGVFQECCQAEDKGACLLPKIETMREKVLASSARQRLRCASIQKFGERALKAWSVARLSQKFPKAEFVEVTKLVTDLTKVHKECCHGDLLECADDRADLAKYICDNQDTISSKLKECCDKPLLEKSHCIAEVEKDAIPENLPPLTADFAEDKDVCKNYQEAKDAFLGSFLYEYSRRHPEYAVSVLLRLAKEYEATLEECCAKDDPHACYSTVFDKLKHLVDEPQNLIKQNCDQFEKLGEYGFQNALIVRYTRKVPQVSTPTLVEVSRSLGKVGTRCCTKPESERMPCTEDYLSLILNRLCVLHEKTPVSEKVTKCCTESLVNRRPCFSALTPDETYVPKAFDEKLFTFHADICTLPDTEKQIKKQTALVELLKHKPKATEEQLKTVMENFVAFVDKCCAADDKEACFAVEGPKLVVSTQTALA
The subject of series [3] is Calf thymus DNA. Kind of series: Binding affinity to calf thymus DNA by UV-vis absorption spectral analysis. In kind it is nucleic-acid assay. Conditions: Bos taurus.
Series [4] concerns Calf thymus DNA. Kind of series: Binding affinity to calf thymus DNA assessed as hypochromic effect up to 10 uM by UV-vis absorption spectral analysis. The conditions noted are these: Bos taurus. It counts as nucleic-acid assay.
The target of series [5] is T1, Albumin. Kind of series: Binding affinity to bovine serum albumin assessed as Stern-Volmer quenching constant by fluorescence spectroscopic analysis. The conditions noted are these: cattle, isolated protein. In kind it is ADME.
Series [6] has as its system Calf thymus DNA. Description: Binding affinity to calf thymus DNA assessed as hyperchromic effect up to 10 uM by UV-vis absorption spectral analysis. The conditions noted are these: Bos taurus. It counts as nucleic-acid assay.

For the molecule `COc1ccc(Br)cc1/C=N/N1C(=O)C(C#N)=CC12c1ccccc1Nc1ccccc12`, the inhibition in series [1] was 1.64%. The Activity on Albumin [2] was found to be 42.53%; in the series on Calf thymus DNA [4], 100%. In the series with Calf thymus DNA [3], the Kb was 6.7 ×10⁵ /M. Moreover, the KSV on Albumin [5] amounted to 1.9 ×10⁴ /M.
`N#CC1=CC2(c3ccccc3Nc3ccccc32)N(/N=C/c2ccccc2)C1=O`: in series [1], the inhibition was 9.78%.
Turning to `N#CC1=CC2(c3ccccc3Nc3ccccc32)N(/N=C/c2ccc(F)cc2)C1=O`, the inhibition in series [1] was determined as 70.7%. In addition, the Activity at Albumin [2] worked out at 55.11%; in the series on Calf thymus DNA [6] it was 45.8%. The same molecule showed a Kb with Calf thymus DNA [3] of 1.5 ×10⁵ /M. On Albumin [5], the KSV is 2.3 ×10⁴ /M.
As for `CN(C)c1ccc(/C=N/N2C(=O)C(C#N)=CC23c2ccccc2Nc2ccccc23)cc1`, the inhibition in series [1] amounted to 1.64%. The Activity on Albumin [2] came out at 54.95%; in the series on Calf thymus DNA [4], 7.14%. The same molecule showed a Kb in the series with Calf thymus DNA [3] of 1.1 ×10⁸ /M. At Albumin [5], the KSV is 2.7 ×10⁴ /M.
For `N#CC1=CC2(c3ccccc3Nc3ccccc32)N(/N=C/c2ccc([N+](=O)[O-])cc2)C1=O`, in that order: 43.7%, 71.74%, 13.5%, 4.8 ×10⁶ /M and 3.1 ×10⁴ /M.
For `CCOc1cc(/C=N/N2C(=O)C(C#N)=CC23c2ccccc2Nc2ccccc23)ccc1O`, in that order: 20.6%, 58.57%, 14.4%, 2.6 ×10⁵ /M and 2.3 ×10⁴ /M.
For `N#CC1=CC2(c3ccccc3Nc3ccccc32)N(/N=C/c2ccc(Cl)cc2)C1=O`, in that order: 84.3%, 60.3%, 44.3%, 7.6 ×10⁵ /M and 3.4 ×10⁴ /M.
As for `N#CC1=CC2(c3ccccc3Nc3ccccc32)N(/N=C/c2c(Cl)cccc2Cl)C1=O`, the inhibition in series [1] came out at 15.9%. Moreover, the Activity on Albumin [2] came out at 45.77%; with Calf thymus DNA [4], 30%. This molecule displayed a Kb in the series on Calf thymus DNA [3] of 1.6 ×10⁵ /M. In addition, the KSV at Albumin [5] is given as 2.1 ×10⁴ /M.
For the molecule `COc1ccc(/C=N/N2C(=O)C(C#N)=CC23c2ccccc2Nc2ccccc23)cc1`, the inhibition in series [1] amounted to 88.1%.
On to `N#CC1=CC2(c3ccccc3Nc3ccccc32)N(/N=C/c2ccccc2[N+](=O)[O-])C1=O`, for which the inhibition in series [1] turned out to be 1.64%. Also, the Activity on Albumin [2] was 51.46%; in the series on Calf thymus DNA [4], 8.06%. Moreover, the Kb in the series on Calf thymus DNA [3] was 3.7 ×10⁵ /M. For the same molecule, at Albumin [5], the KSV is recorded as 2.3 ×10⁴ /M.
With `N#CC1=CC2(c3ccccc3Nc3ccccc32)N(/N=C/c2ccc(Cl)cc2Cl)C1=O`, the inhibition in series [1] amounted to 61.7%. In addition, the Activity at Albumin [2] came out at 48.01%; with Calf thymus DNA [6] it was 65.3%. The Kb in the series with Calf thymus DNA [3] amounted to 8.2 ×10⁵ /M. For the same molecule, the KSV at Albumin [5] is given as 2 ×10⁴ /M.
